Experimental data published in PMC6385020 (Molecules, 2019).

Assays:
[1] = system: 22AG human telomeric sequence G4; experiment: TO G4-FID assay; assay type: binding; conditions: TO 2 eq, K+100 buffer
Procedure: (§1) For the G4-FID assay, the oligonucleotides were dissolved in K^+100 buffer (10 mM lithium cacodylate buffer pH 7.3, 100 mM KCl, 1% DMSO). Oligonucleotide concentrations were determined on the basis of their absorbance at 260 nm. For the fluorimetric titration, the oligonucleotides were dissolved in K^+100 buffer without DMSO. For the FRET-melting assay, the oligonucleotides were dissolved in K^+1 buffer (10 mM lithium cacodylate buffer pH 7.3, 1 mM KCl, 99 mM LiCl) except for F-21-T. F-21-T was dissolved in K^+10 buffer (10 mM lithium cacodylate buffer pH 7.3, 10 mM KCl, 90 mM LiCl).
(§2) Prior to use, all oligonucleotides were pretreated by heating at 95 °C for 5 min, then rapidly cooled to 4 °C to favor the intramolecular folding by kinetic trapping. Duplex-DNA ds26 was prepared by heating the self-complementary strand at 90 °C for 5 min in K^+1 buffer followed by a slow cooling over 6 h.
(§3) Each G4-FID assay was performed in a 96-well Non-Binding Surface black with black bottom polystyrene microplates (Corning). Every ligand was tested on a line of the microplate, in duplicate. The microplate was filled with (a) K^+100 solution (qs for 200 μL), (b) 10 μL of a solution of pre-folded oligonucleotides (5 μM) and fluorescent probe (TO/TO-PRO-3 (10 μM—2 eq) or PhenDV (7,5 µM—1.5 eq)), and (c) an extemporaneously prepared 5 μM ligand solution in K^+100 buffer (0 to 100 μL) along the line of the microplate, i.e., from column A to column H: 0, 0.125, 0.25, 0.375, 0.5, 0.625, 0.75, 1.0, 1.25, 1.5, 2.0, and 2.5 μM. After 5 min of orbital shaking at 500 rpm, fluorescence is measured using the following experimental parameters: positioning delay of 0.5 s, 20 flashes per well, emission/excitation filters for TO at 485/520, TO-PRO-3 at 620/670, and PhenDV at 355/520 gain adjusted at 80% of the fluorescence from the most fluorescent well (i.e., a well from column A for TO and a well from column H).
(§4) The percentage of TO displacement is calculated from the fluorescence intensity (F), using (1) % TO displacement=1−F/F0 where F0 is the fluorescence from the fluorescent probe bound to DNA without added ligand.
(§5) The PhenDV displacement is calculated from the fluorescence intensity F; F(ligand+probe), which refers to the fluorescence of the probe in presence of the ligand (without G4); and F0, which is the fluorescence without added ligand. The term F(ligand+probe) is necessary as the ligand can quench the fluorescence of the probe. The percentage of displacement is then plotted as a function of the concentration of the added ligand. The DNA affinity was evaluated by the concentration of ligand required to decrease the fluorescence of the probe by 50%, was noted DC50, and was determined after non-linear fitting of the displacement curve.

[2] = system: 21CTA human telomeric sequence variant G4; assay type: binding; conditions: K+100 buffer; for % of TO displacement at 1 µM of ligand: TO 2 eq; for % of TOPRO3 displacement at 1 µM of ligand: TO-PRO-3 2 eq
Procedure: as §1, §2, §3, §4, §5

[3] = system: 22AG human telomeric sequence G4; experiment: PhenDV G4-FID assay; assay type: binding; conditions: PhenDV 1.5 eq, K+100 buffer
Procedure: as §1, §2, §3
(§6) In the case of PhenDV, the fluorescence of the unbound probe is not negligible. The percentage of displacement becomes (2) % PhenDV Displacement=F−F0/Fligand+probe−F0
as §5

[4] = system: CEB25-WT minisatellite sequence G4; experiment: PhenDV G4-FID assay; assay type: binding; conditions: PhenDV 1.5 eq, K+100 buffer
Procedure: as §1, §2, §3, §6, §5

c-myc G4 [5] = experiment: PhenDV G4-FID assay; assay type: binding; conditions: PhenDV 1.5 eq, K+100 buffer
Procedure: as §1, §2, §3, §6, §5

[6] = system: G4 structures (22AG, c-myc, 21CTA, CEB25-WT); experiment: TO-PRO-3-G4-FID assay, G4 structures; assay type: binding
Procedure: as §1, §2, §3, §4, §5

c-myc G4 DNA = experiment: Platination of c-myc followed by denaturing gel electrophoresis; assay type: biochemical; conditions: for platination products on gel electrophoresis: c-myc 100 µM, 18 h at 32 °C, K+100 buffer; for platination of c-myc during melting temperature experiments: 0.2 µM c-myc, 1 µM complex, 25 to 95 °C gradient, K+1 buffer; for selectivity of platination, c-myc G4 vs duplex ds26 (competition kinetics): c-myc 0.2 µM, ds26 10 µM
Procedure: The five platinum complexes were incubated for 18 h at 32 °C with pre-folded 5’-end ^32P radiolabeled c-myc DNA (10 or 100 µM) and loaded on denaturing polyacrylamide gel electrophoresis (Figure 4).
Two main accelerated bands (A1 and A2) were detected for Pt-ttpy and three were detected for Pt-tpy (B1, B2, and B3) in the presence of 10 µM of DNA. However, for Pt-BisQ, two accelerated bands (C1 and C2) and one retarded band (C3) were only detected at higher DNA concentration (100 µM). It is noteworthy that c-myc platination products migrate faster that the non-platinated G4, resulting in a stark contrast if compared to 22AG in which platination products migrate slower (Figure 2): this is due to the presence of the still folded G4 structures that resist to denaturation, as already found. […] The platination sites of Pt-ttpy, Pt-tpy, and Pt-BisQ were determined by 3’-exonuclease digestion, which stops at the platinated base, followed by a de-platination treatment of the digested fragments with NaCN (Figures S6 and S7). The exact length of the digested de-platinated fragment was deduced from its migration compared with the one of a digestion ladder of the c-myc sequence on a denaturating gel electrophoresis.
The oligonucleotides were 5’-end-labelled using a polynucleotide kinase and (γ^32P)-ATP (Perkin Helmer). The reaction products were purified by electrophoresis on 20% denaturing gel. Sample platinations were prepared by folding a mixture of 5’-end-radiolabeled DNA and 10 µM or 100 µM of non-radiolabeled material in 100 mM KClO4 or 100 mM KCl solution except for the platination reaction in the denaturing temperature conditions. The folding was achieved by heating the samples at 90 °C for 5 min, followed by slow cooling to room temperature over the course of 2 h to induce the formation of the quadruplex structure. It was then incubated with platinum complexes, and platinated products were separated by electrophoresis on 15% denaturing gel. They were then eluted from gel, precipitated, treated by 3’-exonuclease at 37 °C for 30 min, and loaded on a 20% denaturing gel. The digested fragments were eluted from this gel precipitated, treated over night by NaCN 0.2M, precipitated, and loaded once again on a 20% denaturing gel. Gels were scanned using a STORM860 (Molecular Dynamics).

[7] = system: c-myc (myc22) (DNA, G4) TGAGGGTGGGTAGGGTGGGTAA; experiment: G4-FID, thiazole orange displacement; conditions: 100 mM KCl; 10 mM lithium cacodylate pH 7.3, 1% DMSO; thiazole orange displaced; 1 µM compound, 0.25 µM DNA
[8] = system: CEB25-WT (DNA, G4) AAGGGTGGGTGTAAGTGTGGGTGGGT; experiment: G4-FID, thiazole orange displacement; conditions: 100 mM KCl; 10 mM lithium cacodylate pH 7.3, 1% DMSO; thiazole orange displaced; 1 µM compound, 0.25 µM DNA
[9] = system: CEB25-WT minisatellite sequence G4; experiment: TO-PRO-3 G4-FID assay; assay type: binding; conditions: TO-PRO-3 2 eq, K+100 buffer
Procedure: as §1, §2, §3, §4, §5

c-myc G4 [10] = experiment: TO-PRO-3 G4-FID assay; assay type: binding; conditions: TO-PRO-3 2 eq, K+100 buffer
Procedure: as §1, §2, §3, §4, §5

SMILES | % of TO displacement at 1 µM of ligand [1] | % of TO displacement at 1 µM of ligand [2] | % of TOPRO3 displacement at 1 µM of ligand [2] | % of PhenDV displacement at 1 µM of ligand [3] | % of PhenDV displacement at 1 µM of ligand [4] | % of PhenDV displacement at 1 µM of ligand (c-myc G4 [5]) | TO-PRO-3 displacement [6] | platination products on gel electrophoresis (c-myc G4 DNA) | % TO displacement [7] | % TO displacement [8] | % of TOPRO3 displacement at 1 µM of ligand [9] | % of TOPRO3 displacement at 1 µM of ligand (c-myc G4 [10]) | platination of c-myc during melting temperature experiments (c-myc G4 DNA) | selectivity of platination, c-myc G4 vs duplex ds26 (competition kinetics) (c-myc G4 DNA; K+10 buffer) | incubation time to metallate a large amount of c-myc* (c-myc G4 DNA; c-myc* 0.2 µM, K+10 buffer, 25 °C)
[Cl-].[Cl][Pt+].c1ccc(-c2cc(-c3ccc(OCCN4CCCC4)cc3)nc(-c3ccccn3)n2)nc1 [Pt-cpym, Chloro-(2,4-di(pyridin-2-yl)-6-(4-(2-(pyrrolidin-1-yl)ethoxy)phenyl)pyrimidine)-platinum(II) Chloride] | 67% | 82% | 25% | 43% | 33% | 3% | weak displacement | Non-defined platination products | < 60% | < 60% |  |  |  |  | 
CN(C)CCCNCc1ccc(-c2cc(-c3ccccn3)nc(-c3ccccn3)c2)cc1.[Cl-].[Cl][Pt+] [Pt-ctpy] | 88% | 93% | 83% | 84% | 72% | 29% |  | Non-defined platination products | > 80% | > 80% | 76% | 58% |  |  | 
[Cl-].[Cl][Pt+].c1ccc(-c2cccc(-c3ccccn3)n2)nc1 [Pt-tpy] | 21% | 24% | 23% | 24% | 13% | 5% | weak displacement |  |  |  |  | 32% | clearly platinate | low binding selectivity | 
Cc1ccc(-c2cc(-c3ccccn3)nc(-c3ccccn3)c2)cc1.[Cl-].[Cl][Pt+] [Pt-ttpy] | 80% | 87% | 62% | 63% | 45% | 22% |  |  | > 80% | > 80% | 62% | 76% | clearly platinate | high selectivity | ≤ 120 min
CN(C)c1ccc(/C=C/c2cc(-c3ccccn3)nc(-c3ccccn3)n2)cc1.[Cl-].[Cl][Pt+] [Pt-vpym, Chloro-(E)-4-(2-(2,6-di(pyridin-2-yl)pyrimidin-4-yl)vinyl)-N,N-dimethylaniline-platinum(II) Chloride] |  |  | 32% |  |  |  | 30% | Non-defined platination products |  |  | 23% | 32% |  |  | 
